Where a chain is given by its changes, count along the chain named.
Legend:
Assay in all cases: FLIPR Blue membrane potential assay, inhibition of 5-HT response
Format in all cases: cell-based
[1] = target: T1, h5-HT3AR (Homo sapiens, UniProt P46098, R200K)
T1 sequence (P46098 24-478 R200K): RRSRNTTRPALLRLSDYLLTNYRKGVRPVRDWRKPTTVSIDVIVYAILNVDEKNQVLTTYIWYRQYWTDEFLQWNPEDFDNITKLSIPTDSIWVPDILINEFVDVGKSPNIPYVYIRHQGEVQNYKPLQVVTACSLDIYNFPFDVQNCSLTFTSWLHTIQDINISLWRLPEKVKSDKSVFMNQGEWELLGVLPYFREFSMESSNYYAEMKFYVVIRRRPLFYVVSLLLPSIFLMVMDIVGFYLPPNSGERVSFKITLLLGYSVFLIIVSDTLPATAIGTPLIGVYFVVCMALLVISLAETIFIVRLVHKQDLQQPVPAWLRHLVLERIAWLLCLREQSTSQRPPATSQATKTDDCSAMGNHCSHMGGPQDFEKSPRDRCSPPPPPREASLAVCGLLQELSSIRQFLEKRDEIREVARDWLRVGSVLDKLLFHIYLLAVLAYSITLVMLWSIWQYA

[2] = target: T2, h5-HT3AR (Homo sapiens, UniProt P46098, V202I)
T2 sequence (P46098 24-478 V202I): T1 sequence (P46098 24-478 R200K) with K177R, V179I

[3] = target: T3, h5-HT3AR (Homo sapiens, UniProt P46098, M223D)
T3 sequence (P46098 24-478 M223D): T1 sequence (P46098 24-478 R200K) with K177R, M200D

[4] = target: T4, r5-HT3AR (Rattus norvegicus, UniProt P35563)
T4 sequence (P35563 24-483): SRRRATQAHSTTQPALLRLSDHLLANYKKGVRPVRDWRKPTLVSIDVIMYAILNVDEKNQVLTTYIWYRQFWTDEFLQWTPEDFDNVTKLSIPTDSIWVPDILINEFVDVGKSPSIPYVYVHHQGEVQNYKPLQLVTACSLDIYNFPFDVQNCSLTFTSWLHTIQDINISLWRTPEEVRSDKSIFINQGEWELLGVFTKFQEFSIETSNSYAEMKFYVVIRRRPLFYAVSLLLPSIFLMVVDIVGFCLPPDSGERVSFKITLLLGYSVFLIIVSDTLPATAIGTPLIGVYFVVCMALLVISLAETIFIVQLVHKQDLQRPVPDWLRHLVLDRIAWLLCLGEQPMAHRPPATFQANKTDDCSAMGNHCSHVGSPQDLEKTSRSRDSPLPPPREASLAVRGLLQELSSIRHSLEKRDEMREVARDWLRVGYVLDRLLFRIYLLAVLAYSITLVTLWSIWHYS

[5] = target: T5, r5-HT3AR (Rattus norvegicus, UniProt P35563, I207V)
T5 sequence (P35563 24-483 I207V): T4 sequence (P35563 24-483) with I184V

[6] = target: T6, h5-HT3AR (Homo sapiens, UniProt P46098)
T6 sequence (P46098 24-478): T1 sequence (P46098 24-478 R200K) with K177R

IC50 [1]: 94 nM
IC50 [2]: 37 nM
IC50 [3]: 375 nM
IC50 [4]: 26 nM
IC50 [5]: 10 nM
IC50 [6]: 20 nM
SMILES: Cc1ccc(Sc2ccccc2N2CCNCC2)c(C)c1 [vortioxetine]
